From patent US8188148B2, “Substituted 1,3-diphenylpropane derivatives, preparations and uses thereof” (Genfit, priority 2006, dated 2012)

What was measured:
ApoE2/E2 mouse = assay: In vivo evaluation on ApoE2/E2 mouse: body weight and plasma lipids; details: E2/E2 mouse, 5, 10, and 50 mpk per os, 8 days, vs control
Method: The dyslipidemic E2/E2 mouse's body weight, rates of total cholesterol, triglycerides and of plasma free fatty acids are measured after 8 days of a per os treatment with the compounds according to the invention.
The murine model used is the ApoE2/E2 mouse, a transgenic mouse having the human apolipoprotein E isoform E2 (Sullivan P M et al., 1998). In human, this apolipoprotein, a constituent of low and very low density lipoproteins (LDL-VLDL), is present in three isoforms E2, E3, and E4. The E2 form presents a mutation affecting the amino acid of position 158, which considerably weakens the affinity of this protein for the receptors to LDL receptors. Accordingly, the VLDL clearance is nearly non-existent. An accumulation of low-density lipoproteins then occurs along with a mixed hyperlipidemia known as of type III (high cholesterol and triglycerides rates).
The ApoE2/E2 transgenic mice were kept on a 12 hour/12 hour light/dark cycle at a constant temperature of 20±3° C. After a one week acclimatization period, the mice were weighed and divided into groups of 6 animals selected so as to render uniform the distribution of their body weights and plasma lipid rates, determined before the experiment. The tested compounds were suspended in carboxymethylcellulose (Sigma C4888) and administered by intra-gastric tube feeding, once a day for 8 days at the chosen dosage. The animals had free access to food and water (standard diet). Taking of food and weight gain are recorded throughout the experiment. At the end of the experiment, the animals were anesthetized after a 4 hour fast, a blood sample was taken using (EDTA) anticoagulant, then the mice were weighed and euthanized. The plasma was prepared by centrifugation at 3000 rotations/minute for 20 minutes. The samples were kept at +4° C.
Plasma lipid concentrations (total cholesterol and triglycerides) are measured by enzymatic dosages (bioMérieux-Lyon-France) according to the provider's recommendations.
Plasma cholesterol and triglycerides rates are measured after 8 days of a per os treatment with the compounds according to the invention. These rates are compared with those obtained with control animals (not treated with compounds according to the invention).
Low-density lipoproteins (VLDL and LDL) are precipitated by Phosphotungstate. The precipitate is eliminated by centrifugation. HDL cholesterol present in the supernatant is measured by enzymatic dosages (bioMérieux-Lyon-France) in accordance with the provider's recommendations.

C57BI6 mouse = assay: In vivo evaluation on C57BI6 mouse: body weight and plasma lipids; details: C57BI6 mouse, 3, 10, and 30 mpk per os, 14 days, vs control
Method: The effect of the compounds according to the invention is evaluated in vivo on the C57BI6 mouse by measuring the body weight evolution, the plasma HDL cholesterol and triglyceride levels, after 14 days of a per os treatment with the compounds according to the invention.
Female C57BI6 mice were kept on a 12 hour/12 hour light/dark cycle at a constant temperature of 20±3° C. After a one week acclimatization period, the mice were weighed and divided into groups of 6 animals selected such as the distribution of body weight and of plasma lipid rate, determined before the experiment, was uniform. The tested compounds were suspended in carboxymethylcellulose (Sigma C4888) and administered to the animals by gastric gavage, once a day for 14 days at the chosen doses. The animals had free access to food and water (standard diet). Taking of food and weight gain are recorded throughout the experiment. At the end of the experiment, after a 4 hour fast, the animals were anesthetized and a blood sample was taken on anticoagulant (EDTA). Then the mice were weighed and euthanized. The plasma was separated by centrifugation at 3000 rotations/minute for 20 minutes. The samples were kept at +4° C. Hepatic tissue samples were removed, frozen in liquid nitrogen, and then kept at −80° C. for later analyses.
Low-density lipoproteins (VLDL and LDL) are precipitated by Phosphotungstate. The precipitate is eliminated by centrifugation. HDL-cholesterol present in the supernatant is measured by enzymatic assays (bioMérieux-Lyon-France) in accordance with the provider's recommendations.
Plasma triglyceride concentrations were measured by enzymatic assays (bioMérieux-Lyon-France) according to the provider's recommendations.

Cc1cc(CCC(=O)c2ccc(OC(F)(F)F)cc2)cc(C)c1OC(C)(C)C(=O)O [Compound 1, 2-[2,6-dimethyl-4-[3-[4-(trifluoromethyloxy)phenyl]-3-oxo-propyl]phenoxy]-2-methyl-propanoic acid]
body weight gain (ApoE2/E2 mouse): weight loss
plasma HDL-cholesterol (ApoE2/E2 mouse): significantly increased
plasma free fatty acids (ApoE2/E2 mouse): decreased very significantly
plasma total cholesterol (ApoE2/E2 mouse): significantly reduced
plasma triglycerides (ApoE2/E2 mouse): decreased very significantly
body weight gain (C57BI6 mouse): weight loss
plasma HDL-cholesterol (C57BI6 mouse): very significantly increased
plasma triglycerides (C57BI6 mouse): very significantly diminished
